Experimental data published in patent publication US20210324092A1, “MONOCLONAL ANTIBODY COMPOSITION FOR TREATMENT OF PHILADELPHIA CHROMOSOME POSITIVE ACUTE LYMPHOBLASTIC LEUKEMIA” (priority 2018, published 2021).

Test system: BCR-ABL+ pre-B cells
Test: Rescue of BCR-ABL+ pre-B cells from imatinib-induced cell death; cell cycle analysis (FIGS. 6 and 7)
Type: cell-based, mice
Settings: for effect on BCR-ABL inhibitor (imatinib)-induced cell death: Imatinib 1 μM, IL7 2.5 ng/ml, CXCL12 100 ng/ml, AMD3100 10 μM

Molecule: c1cc(CN2CCCNCCNCCCNCC2)ccc1CN1CCCNCCNCCCNCC1 [AMD3100, reference compound]
- effect on BCR-ABL inhibitor (imatinib)-induced cell death: did not affect imatinib treatment

Molecule: TSLP: the ligand for CRLF2
- effect on BCR-ABL inhibitor (imatinib)-induced cell death: did not affect imatinib treatment

B1: IL7: interleukin 7, a cytokine which is important for B and T cell development (protein, UniProt P13232 26-177, looked up)
Interleukin-7: DCDIEGKDGKQYESVLMVSIDQLLDSMKEIGSNCLNNEFNFFKRHICDANKEGMFLFRAARKLRQFLKMNSTGDFDLHLLKVSEGTTILLNCTGQVKGRKPAALGEAQPTKSLEENKSLKEQKKLNDLCFLKRLLQEIKTCWNKILMGTKEH
- effect on BCR-ABL inhibitor (imatinib)-induced cell death: counteracted the BCR-ABL inhibitor-induced cell death
- cell cycling under imatinib treatment (imatinib in the presence of IL7): restored cell cycling
